Results: PMC2770896, “Inhibition of Neuraminidase Inhibitor-Resistant Influenza Virus by DAS181, a Novel Sialidase Fusion Protein” (PLoS ONE, 2009)
Like-named read-outs stand apart in the source and are kept apart here.

Key:
A/HongKong/2637/04 = assay type: cell-based, IFV A (H1N1)
A/HongKong/2765/04 = assay type: cell-based, IFV A (H1N1)
A/NewJersey/15/07 = assay type: cell-based, IFV A (H1N1)
A/Hawaii/21/07 = assay type: cell-based, IFV A (H1N1)
A/St.Louis/539/09 = assay type: cell-based, IFV A (H1N1)
A/St.Louis/746/09 = assay type: cell-based, IFV A (H1N1)
A/St.Louis/775/09 = assay type: cell-based, IFV A (H1N1)
A/St.Louis/758/09 = assay type: cell-based, IFV A (H1N1)
A/St.Louis/630/09 = assay type: cell-based, IFV A (H1N1)
A/St.Louis/764/09 = assay type: cell-based, IFV A (H1N1)
A/St.Louis/690/09 = assay type: cell-based, IFV A (H1N1)
A/St.Louis/790/09 = assay type: cell-based, IFV A (H1N1)
A/St.Louis/792/09 = assay type: cell-based, IFV A (H1N1)
[1] = target: NA enzymatic activity of A/Georgia/17/2006 WT (Influenza A virus (H1N1), UniProt A7UPL3); test: Chemiluminescent neuraminidase activity inhibition (NI) assay; assay type: biochemical
Protocol: (§1) The chemiluminescent neuraminidase activity inhibition (NI) assay was conducted using a commercially available kit, NA-Star (Applied Biosystems, Foster City, CA) as previously described. Oseltamivir carboxylate and zanamivir were used at 10 half-log dilutions (0.03 to 1000 nM). Values shown represent mean of triplicate analysis.

[2] = target: NA enzymatic activity of A/Hawaii/21/2007 (Influenza A virus (H1N1), UniProt B1AGI9); test: as above; assay type: biochemical, IFV A (H1N1); settings: A/Hawaii/21/2007; NI assay
Protocol: as §1

[3] = target: NA enzymatic activity of A/St.Louis/539/09 (Influenza A virus, UniProt D0FH47); test: as above; assay type: biochemical, IFV A (H1N1)
Protocol: as §1

[4] = target: NA enzymatic activity of A/St.Louis/630/09 (Influenza A virus, UniProt D0FH48); test: as above; assay type: biochemical, IFV A (H1N1)
Protocol: as §1

[5] = target: NA enzymatic activity of A/St.Louis/690/09 (Influenza A virus, UniProt D0FH49); test: as above; assay type: biochemical, IFV A (H1N1)
Protocol: as §1

[6] = target: NA enzymatic activity of A/St.Louis/746/09 (Influenza A virus, UniProt D0FH50); test: as above; assay type: biochemical, IFV A (H1N1)
Protocol: as §1

[7] = target: NA enzymatic activity of A/St.Louis/764/09 (Influenza A virus, UniProt D0FH52); test: as above; assay type: biochemical, IFV A (H1N1)
Protocol: as §1

[8] = target: NA enzymatic activity of A/St.Louis/775/09 (Influenza A virus, UniProt D0FH53); test: as above; assay type: biochemical, IFV A (H1N1)
Protocol: as §1

[9] = target: NA enzymatic activity of A/St.Louis/790/09 (Influenza A virus, UniProt D0FH54); test: as above; assay type: biochemical, IFV A (H1N1)
Protocol: as §1

[10] = target: NA enzymatic activity of A/St.Louis/792/09 (Influenza A virus, UniProt D0FH55); test: as above; assay type: biochemical, IFV A (H1N1)
Protocol: as §1

[11] = system: Human renal cortical epithelial cells; test: Primary cell cytotoxicity, MTS assay; assay type: cell-based; settings: 24 hrs or 72 hrs exposure, DAS181 various concentrations, 0.2% thimerosol, 1 mM CdCl2
Description: (§2) Primary cryopreserved human renal cells (Proximal Tubule Epethelial and Cortical Epethelial cells) were thawed, plated, and propagated according to Cambrex’s recommended protocol. Both renal cell lines were thawed and plated at a seeding density of 2500 cells/cm^2 with Renal Epethelial Basal Medium (REBM) supplemented with Cambrex REGM SingleQuots® (Cambrex CC-4127); which includes recombinant human epidermal growth factor, insulin, GA-1000, 0.5% Fetal Bovine Serum, hydrocortisone, transferrin, epinephrine, and triiodothyronine (T3). The cells were allowed to adhere and equilibrate for 24 hours at 37°C with 5% CO2. […] All the renal cells were further subcultured and seeded into 10 tissue culture-coated 24 well plates per cell line at a seeding density of 2.5x10^3 cells/cm^2. Once the cells reached approximately 70% confluency the 24 well plates were used in cytotoxicity experiments using the REBM supplemented with the REGM SingleQuots®.
(§3) On Day 0 the cell media supernatants were initially collected for baseline controls, before adding fresh media supplemented with either PBS, DAS181 (indicated concentrations), or thimerosal (0.2%) or CdCl^2 (1mM) to serve as positive controls for cytotoxicity. All treatment groups were done in triplicate. Treatments were left on for either 24 hrs or 72 hrs. Subsequently, for the 24 hr exposure conditions fresh media without test article was added to all the wells every 24 hours on days 1-3 (24-72 hours post-treatment); a subset of the wells were used for MTS assay each day. For the 72 hr exposure conditions the media was only changed at 72 hrs, immediately prior to MTS assay. Renal cell media interfered with Lactate Dehydrogenase (LDH) and Alkaline Phosphatase (ALP) assays so these were not performed.
(§4) At each endpoint (24, 48, or 72 hrs) the old media was first replaced with fresh warm media (500uL/well) and the samples were then tested for cell viability using the CellTiter 96® Aqueous Non-Radioactive Cell Proliferation Assay (MTS) kit (Promega, Madison, WI). […] 100μL of each sample was then added to a 96 well plate and read for absorbance at 490 nm. A 1:5 dilution of MTS solution in growth media alone was used as the background. For data analysis, background values were subtracted from all sample values. Values were then normalized using the vehicle control as 100%. Each sample was compared to the vehicle control, via ANOVA with Bonferroni post-test, to determine if there was a statistically significant change in cell viability.

[12] = system: Human renal proximal tubule cells; test: Primary cell cytotoxicity, MTS assay; assay type: cell-based; settings: 24 hrs or 72 hrs exposure, DAS181 various concentrations, 0.2% thimerosol, 1 mM CdCl2
Description: as §2, §3, §4

## CC(=O)N[C@H]1[C@H]([C@H](O)[C@H](O)CO)OC(C(=O)O)=C[C@@H]1N=C(N)N [zanamivir]
A/HongKong/2637/04; read-out: EC50
  EC50: 1.82 ± 0.46 µM
A/HongKong/2637/04; read-out: EC50 Zanamivir
  EC50: 1.82 ± 0.46 µM
A/HongKong/2765/04; read-out: EC50
  EC50: 4.17 ± 0.53 µM
A/HongKong/2765/04; read-out: EC50 Zanamivir
  EC50: 4.17 ± 0.53 µM
A/NewJersey/15/07; read-out: EC50
  EC50: 7.02 ± 2.46 µM
A/NewJersey/15/07; read-out: EC50 Zanamivir
  EC50: 7.02 ± 2.46 µM
A/Hawaii/21/07; read-out: EC50
  EC50: 45 ± 22.5 µM
A/Hawaii/21/07; read-out: EC50 Zanamivir
  EC50: 45 ± 22.5 µM
A/St.Louis/539/09; read-out: EC50
  EC50: > 332 µM
A/St.Louis/539/09; read-out: EC50 Zanamivir
  EC50: > 332 µM
A/St.Louis/746/09; read-out: EC50
  EC50: 1.96 ± 0.42 µM
A/St.Louis/746/09; read-out: EC50 Zanamivir
  EC50: 1.96 ± 0.42 µM
A/St.Louis/775/09; read-out: EC50
  EC50: 1.2 ± 0.36 µM
A/St.Louis/775/09; read-out: EC50 Zanamivir
  EC50: 1.2 ± 0.36 µM
A/St.Louis/758/09; read-out: EC50
  EC50: 7.06 ± 2.84 µM
A/St.Louis/758/09; read-out: EC50 Zanamivir
  EC50: 7.06 ± 2.84 µM
A/St.Louis/630/09; read-out: EC50
  EC50: 62.1 ± 34.8 µM
A/St.Louis/630/09; read-out: EC50 Zanamivir
  EC50: 62.1 ± 34.8 µM
A/St.Louis/764/09; read-out: EC50
  EC50: > 273 µM
A/St.Louis/764/09; read-out: EC50 Zanamivir
  EC50: > 273 µM
A/St.Louis/690/09; read-out: EC50
  EC50: > 182 µM
A/St.Louis/690/09; read-out: EC50 Zanamivir
  EC50: > 182 µM
A/St.Louis/790/09; read-out: EC50
  EC50: 3.12 ± 1.83 µM
A/St.Louis/790/09; read-out: EC50 Zanamivir
  EC50: 3.12 ± 1.83 µM
A/St.Louis/792/09; read-out: EC50
  EC50: > 156 µM
A/St.Louis/792/09; read-out: EC50 Zanamivir
  EC50: > 156 µM
[1]; A/Georgia/17/2006 WT reference virus, mean of triplicate analysis
  IC50: 0.00044 µM
[1]; A/Georgia/17/2006 WT, NI assay
  R/S: S
[2]
  R/S: S
[3]; NI assay
  R/S: S
[3]; mean of triplicate analysis
  IC50: 0.00028 µM
[4]; NI assay
  R/S: S
[4]; mean of triplicate analysis
  IC50: 0.00048 µM
[5]; NI assay
  R/S: S
[5]; mean of triplicate analysis
  IC50: 0.00044 µM
[6]; NI assay
  R/S: S
[6]; mean of triplicate analysis
  IC50: 0.0003 µM
[7]; NI assay
  R/S: S
[7]; mean of triplicate analysis
  IC50: 0.0003 µM
[8]; NI assay
  R/S: S
[8]; mean of triplicate analysis
  IC50: 0.00033 µM
[9]; NI assay
  R/S: S
[9]; mean of triplicate analysis
  IC50: 0.00029 µM
[10]; NI assay
  R/S: S
[10]; mean of triplicate analysis
  IC50: 0.00028 µM

## [Cl][Cd][Cl] [CdCl2, cadmium chloride]
[11]
  Cell viability (MTS) vs PBS: significant reduction in cell viability
[12]
  Cell viability (MTS) vs PBS: significant reduction in cell viability
